We go through 2 compounds from patent US9910031B2, “Compositions and methods for modulating c-Rel-dependent cytokine production” (Synta Pharmaceuticals Corporation, priority 2003, dated 2018).

Holding throughout (format): cell-based, human
The test system of assay [1] is IL-12 p40 mRNA. The assay can be described thus: Northern blot of IL-12 p40 mRNA in IFN-γ/SAC-stimulated THP-1 cells. The note with it: THP-1, IFN-γ/SAC, 1 μM Compound 1. As for the experimental part: Northern blot analysis was performed to examine the mRNA levels of IL-12 p35 and p40. Human PBMC and the human monocyte cell line THP-1 cells were stimulated with IFN-γ/SAC in the presence or absence of Compound 1. Human PBMC were isolated by centrifugation using Ficoll-Paque (Pharmacia Biotech, Uppsala, Sweden) and prepared in RPMI medium supplemented with 10% fetal calf serum (FCS), 100 U/ml penicillin, and 100 μg/ml streptomycin, in a 96-well plate with 5×10^5 cells/well. The cells were then primed with IFN-γ (100 U/ml) and followed by 0.01% SAC or 1 μg/ml LPS, in the presence of different concentrations of Compound 2 or other compounds. The test compounds were prepared in DMSO and the final DMSO concentration was adjusted to 0.25% in all cultures, including the compound-free control. Cell-free supernatants were taken 18 h later for the measurement of cytokines. The THP-1 cells were obtained from American Type Culture Collection (Manassas, Va.) and were cultured in RPMI 1640 (ATCC, Manassas, Va.), supplemented with 10% FCS (ATCC, Manassas, Va.), and 1% penicillin/Streptomycin (Gibco-BRL, New York, N.Y.). Total RNA was isolated and subjected to Northern blot analysis using IL-12 p35 and p40 cDNA probes. We first examined the kinetics of mRNA accumulation in cultures of hPBMC and THP-1 cells primed with IFN-γ followed by SAC stimulation in the presence or absence of 1 μM Compound 1.

In assay [2] the test system is p65. Nature of the assay: ELISA based transcriptional factor-DNA binding activity assay, THP-1 nuclear extracts, p65. The note with it: IFN-γ/LPS, 500 nm, 3 hrs. As for the experimental part:
(§1) Nuclear extracts were prepared from IFN-γ-primed THP-1 cells that had been treated with or without SAC and incubated in the presence or absence of 1 μM Compound 1 or 10 mM ASA. Isolation of nuclear extracts was accomplished by first suspending THP-1 cells in 20 volumes of buffer A containing 10 mM KCl, 10 mM HEPES (pH 7.9), 1 mM MgCl2, 1 mM dithiothreitol (DTT), 0.1% Nonidet p40 (NP-40), and 0.5 mM phenylmethylsulfonyl fluoride (PMSF) and then homogenizing and centrifuging at 10,000 rpm at 4° C. for 5 min. Nuclear pellets were then suspended in buffer C containing 400 mM NaCl, 20 mM HEPES pH 7.9), 15 mM MgCl2, 0.2 mM EDTA, 1 mM DTT, 25% glycerol, 1 mM PMSF, and 10 μg of leupeptin, 20 μg of pepstatin, and 10 μg of antipain per ml, incubated for 30 min at 4° C., and centrifuge at 14,000 rpm for […]. The supernatants were dialyzed against buffer D containing 100 mM NaCl, 20 mM HEPES (pH 7.9), 20% glycerol, 1 mM PMSF, and 1 mM DTT.
(§2) To understand the action of Compound 2 in NF-κB binding, several NF-κB family members, p50, c-Rel and p65 were investigated using an ELISA based transcriptional factor-DNA binding activity assay system. […]
Background: In an ELISA, binding on a coated surface is turned into a signal by an enzyme label.

The test system of assay [3] is c-Rel. Nature of the assay: Western blot of nuclear c-Rel in THP-1 cells. From the text:
In order to understand this changes, the subcellular localization of NF-κB proteins was investigated using western blot analysis.
Of the transcription factors that have been analyzed, two factors, ICSBP and c-Rel, seem to be affected by Compound 1/Compound 2 treatment. ICSBP binds indirectly to the Ets-2 site. The primary NFκB trans-activator for IL-12 is the c-Rel/p50 heterodimer. Other dimers (p65/p50 and p50/p50) either lack activity or have inhibitory functions. Thus, c-Rel plays a role in IL-12 transcription as a result of both activation through NFκB and its interaction with ICSBP. […] The membranes were blocked with 5% milk in TBST buffer and then incubated with anti-c-Rel, anti-p65, anti-p50, anti-ICSBP or anti-PU-1 antibody (all the antibodies were purchased from Santa Cruz) at a dilution of 1:500 for 1 h at room temperature or overnight at 4° C. The membranes were washed and incubated with Horseradish Peroxidase-conjugated anti-rabbit IgG or anti-mouse IgG (Amersham, England) at a dilution of 1:2000 at room temperature for 1 h.
THP-1 cells were suspended in 20 volumes of buffer A containing 10 mM KCl, 10 mM HEPES (pH 7.9), 1 mM MgCl2, 1 mM dithiothreitol (DTT), 0.1% Nonidet p40 (NP-40), and 0.5 mM phenylmethylsulfonyl fluoride (PMSF) and homogenized and centrifuged at 10,000 rpm at 4 C for 5 min. […]

Assay [4] concerns p50. Nature of the assay: ELISA based transcriptional factor-DNA binding activity assay, THP-1 nuclear extracts, p50. The settings on record: IFN-γ/LPS, 500 nm, 3 hrs. The method, then:
as §1, §2

The subject of assay [5] is c-Rel. The assay can be described thus: ELISA based transcriptional factor-DNA binding activity assay, THP-1 nuclear extracts, c-Rel. The settings on record: IFN-γ/LPS, 500 nm, 3 hrs. As for the experimental part:
as §1, §2

`C(=NNc1nc(OCCc2ccccn2)nc(N2CCOCC2)n1)c1c[nH]c2ccccc12` [Compound 1, N-(1H-indol-3-ylmethylene)-N′-[4-morpholin-4-yl-6-(2-pyridin-2-yl-ethoxy)-[1,3,5]triazin-2-yl]-hydrazine]: in assay [1], the “expression of the p40 message” value is on record as “significantly but incompletely reduced”.
Turning to `Cc1cccc(C=NNc2cc(N3CCOCC3)nc(OCCc3ccccn3)n2)c1` [Compound 2, N-(3-methyl-benzylidene)-N′-[6-morpholin-4-yl-2-(2-pyridin-2-yl-ethoxy)-pyrimidin-4-yl]-hydrazine], the “binding activity of p65” value in assay [2] was “increased binding activity”. Also, in assay [3] (500 nM, 3 hr, relative to untreated cells), the “amount of c-Rel protein in nuclear” value is “decreased”. Further, in assay [3] (THP1, IFN-γ plus LPS or IFN-γ plus SAC), the “nuclear c-Rel level (FIG. 4)” value is recorded as “significantly reduced”. Besides, in assay [4], the “binding activity of p50” value is reported as “slightly decreased”. Also, in assay [5], the “binding activity of c-Rel” value is reported as “significantly decreased”.
